Experimental findings from US20240316019A1 (Bayer Aktiengesellschaft, priority 2023, published 2024) are described below.

The subject of the series is patients with acute non-cardioembolic ischemic stroke. The settings on record: 50 mg daily.

Method: All participants were required to undergo at least two MRIs that met study requirements. In addition to the baseline MRI (obtained after the index stroke either before randomization or within 72 h after randomization), participants underwent a final study MRI at 26 weeks or as soon as possible after early termination of assigned study treatment. Patients were followed up for at least 26 weeks and up to 52 weeks and assessed for the occurrence of safety, efficacy, and adverse events at 2, 4, 8, 13, 20, 26, 32, 39, 46, and 52 (end of treatment) weeks after randomization, and again 2 weeks after the end of treatment visit. Adherence to assigned therapy was assessed by means of interview and pill count at each clinic visit.
The primary safety outcome was the composite of major bleeding and clinically relevant non-major bleeding, according to the criteria of the International Society on Thrombosis and Haemostasis (ISTH). […] Additional prespecified exploratory safety outcomes included haemorrhagic transformation within the qualifying stroke detected by baseline MRI performed post-study drug or on follow-up study MRIs based on the Heidelberg classification of severity (haemorrhagic infarct 1 or 2 or parenchymal haematoma 1 or 2). […]

Consider `CC[C@@H](C(=O)Nc1ccc(C(N)=O)c(F)c1)n1cc(OC)c(-c2cc(Cl)ccc2-n2cc(C(F)(F)F)nn2)cc1=O` [Compound A, (4S)-2^4-chloro-4-ethyl-7^3-fluoro-3^5-methoxy-3^2,5-dioxo-14-(trifluoromethyl)-3^2H-6-aza-3(4,1)-pyridina-1(1)-[1,2,3]triazola-2(1,2),7(1)-dibenzenaheptaphane-7^4-carboxamide], for which the “Primary intracerebral haemorrhages, % participants” value stood at 1% and the “Primary intracerebral haemorrhages, n participants” value is reported as “three”.
